Data on three compounds can be found in ChEMBL document CHEMBL2073788, “Troglitazone-induced intrahepatic cholestasis by an interference with the hepatobiliary export of bile acids in male and female rats. Correlation with the gender difference in troglitazone sulfate formation and the inhibition of the canalicular bile salt export pump (Bsep) by troglitazone and …” (Toxicology, 2001).

The target of experiment [1] is T1, Bile salt export pump (Rattus norvegicus, UniProt O70127).
T1 sequence (O70127 whole entry): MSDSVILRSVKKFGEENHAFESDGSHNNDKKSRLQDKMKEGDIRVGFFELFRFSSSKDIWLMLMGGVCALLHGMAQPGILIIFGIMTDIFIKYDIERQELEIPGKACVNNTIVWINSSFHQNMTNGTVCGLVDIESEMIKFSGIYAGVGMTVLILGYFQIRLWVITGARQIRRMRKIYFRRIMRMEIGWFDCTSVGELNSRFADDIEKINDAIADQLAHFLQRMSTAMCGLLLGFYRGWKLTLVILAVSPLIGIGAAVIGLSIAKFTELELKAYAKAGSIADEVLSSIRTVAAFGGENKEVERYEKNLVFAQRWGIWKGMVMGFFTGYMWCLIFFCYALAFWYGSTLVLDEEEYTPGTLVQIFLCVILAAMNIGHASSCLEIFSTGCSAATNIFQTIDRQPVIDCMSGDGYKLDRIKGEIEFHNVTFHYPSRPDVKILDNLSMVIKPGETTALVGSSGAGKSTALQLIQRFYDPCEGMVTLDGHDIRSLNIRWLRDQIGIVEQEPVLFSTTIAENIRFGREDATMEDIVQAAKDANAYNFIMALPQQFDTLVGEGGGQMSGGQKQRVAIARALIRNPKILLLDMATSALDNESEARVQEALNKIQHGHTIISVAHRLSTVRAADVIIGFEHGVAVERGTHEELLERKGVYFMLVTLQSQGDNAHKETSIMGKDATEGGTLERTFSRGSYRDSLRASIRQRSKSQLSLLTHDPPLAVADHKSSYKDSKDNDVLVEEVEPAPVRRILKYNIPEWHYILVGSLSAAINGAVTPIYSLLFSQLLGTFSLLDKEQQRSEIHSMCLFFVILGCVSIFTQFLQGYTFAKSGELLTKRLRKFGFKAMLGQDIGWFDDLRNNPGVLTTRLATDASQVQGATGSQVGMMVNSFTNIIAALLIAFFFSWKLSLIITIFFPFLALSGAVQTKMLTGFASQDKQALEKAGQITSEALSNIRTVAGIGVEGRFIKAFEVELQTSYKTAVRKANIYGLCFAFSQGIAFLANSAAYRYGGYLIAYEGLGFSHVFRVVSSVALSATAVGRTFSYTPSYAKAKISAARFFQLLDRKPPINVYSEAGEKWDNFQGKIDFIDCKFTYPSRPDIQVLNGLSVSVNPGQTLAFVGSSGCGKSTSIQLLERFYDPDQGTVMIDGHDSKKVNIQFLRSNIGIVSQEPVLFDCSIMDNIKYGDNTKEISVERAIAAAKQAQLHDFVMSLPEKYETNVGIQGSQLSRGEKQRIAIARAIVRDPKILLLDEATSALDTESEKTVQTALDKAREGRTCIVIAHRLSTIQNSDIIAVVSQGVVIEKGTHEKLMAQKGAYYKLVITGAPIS
The experiment is described as follows: TP_TRANSPORTER: inhibition of Taurocholate uptake (Taurocholate: 1 uM) in liver canalicular membrane vesicle from male rat. It counts as functional, cell membranes.

Experiment [2] has as its target T1, Bile salt export pump. The experiment is described as follows: TP_TRANSPORTER: inhibition of Taurocholate uptake (Taurocholate: 1 uM) in liver canalicular membrane vesicle from female rat. In kind it is functional, cell membranes.

Structures can show the parent of a compound that is named as a salt.

Regarding `COc1ccc(Cl)cc1C(=O)NCCc1ccc(S(=O)(=O)NC(=O)NC2CCCCC2)cc1` [GLYBURIDE], the IC50 (in general, the concentration that inhibits the measured activity by half) at Bile salt export pump [1] was found to be 8.6 µM; on Bile salt export pump [2], 15.7 µM.

Consider `Cc1c(C)c2c(c(C)c1OS(=O)(=O)O)CCC(C)(COc1ccc(CC3SC(=O)NC3=O)cc1)O2` (stereo not given) [TROGLITAZONE SULFATE], for which the values for the IC50 at Bile salt export pump [1] and at Bile salt export pump [2] were 0.4 µM and 0.6 µM, respectively.

On to `Cc1c(C)c2c(c(C)c1O)CCC(C)(COc1ccc(CC3SC(=O)NC3=O)cc1)O2` (stereo not given) [TROGLITAZONE], for which, on Bile salt export pump [2], the IC50 came out at 3.9 µM.
